{"source": "ChEMBL document CHEMBL3526061", "about": "“Glucuronidation of edaravone by human liver and kidney microsomes: biphasic kinetics and identification of UGT1A9 as the major UDP-glucuronosyltransferase isoform” (Drug Metab Dispos, 2012)", "format_in_all_cases": "ADME", "key": {"Liver microsome": {"tested_on": "Liver microsome", "assay": "Drug metabolism in human liver microsomes assessed as drug glucuronidation in presence of […] naloxone by LC-MS/MS method"}, "[1]": {"biological_target": "T1, UDP-glucuronosyltransferase 1A3 (Homo sapiens, UniProt P35503)", "T1 sequence (P35503 whole entry)": "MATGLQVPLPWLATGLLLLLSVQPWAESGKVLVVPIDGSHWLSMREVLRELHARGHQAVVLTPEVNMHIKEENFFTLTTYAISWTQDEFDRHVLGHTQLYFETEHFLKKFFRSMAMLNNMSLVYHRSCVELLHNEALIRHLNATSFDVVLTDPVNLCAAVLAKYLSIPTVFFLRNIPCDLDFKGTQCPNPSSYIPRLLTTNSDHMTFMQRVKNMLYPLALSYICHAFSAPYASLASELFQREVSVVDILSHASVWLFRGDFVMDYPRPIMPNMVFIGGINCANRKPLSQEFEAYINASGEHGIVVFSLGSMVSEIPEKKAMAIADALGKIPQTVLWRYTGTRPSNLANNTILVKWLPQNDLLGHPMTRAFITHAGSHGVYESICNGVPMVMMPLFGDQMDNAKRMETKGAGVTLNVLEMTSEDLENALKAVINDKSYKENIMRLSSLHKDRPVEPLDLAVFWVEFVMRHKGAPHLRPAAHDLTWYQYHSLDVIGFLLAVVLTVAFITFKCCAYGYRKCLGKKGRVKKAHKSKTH", "assay": "Activity of human recombinant UGT1A3 expressed in insect cells assessed as enzyme mediated glucuronidation at 500 uM by LC-MS/MS method"}, "[2]": {"biological_target": "T2, UDP-glucuronosyltransferase 1A8 (Homo sapiens, UniProt Q9HAW9)", "T2 sequence (Q9HAW9 whole entry)": "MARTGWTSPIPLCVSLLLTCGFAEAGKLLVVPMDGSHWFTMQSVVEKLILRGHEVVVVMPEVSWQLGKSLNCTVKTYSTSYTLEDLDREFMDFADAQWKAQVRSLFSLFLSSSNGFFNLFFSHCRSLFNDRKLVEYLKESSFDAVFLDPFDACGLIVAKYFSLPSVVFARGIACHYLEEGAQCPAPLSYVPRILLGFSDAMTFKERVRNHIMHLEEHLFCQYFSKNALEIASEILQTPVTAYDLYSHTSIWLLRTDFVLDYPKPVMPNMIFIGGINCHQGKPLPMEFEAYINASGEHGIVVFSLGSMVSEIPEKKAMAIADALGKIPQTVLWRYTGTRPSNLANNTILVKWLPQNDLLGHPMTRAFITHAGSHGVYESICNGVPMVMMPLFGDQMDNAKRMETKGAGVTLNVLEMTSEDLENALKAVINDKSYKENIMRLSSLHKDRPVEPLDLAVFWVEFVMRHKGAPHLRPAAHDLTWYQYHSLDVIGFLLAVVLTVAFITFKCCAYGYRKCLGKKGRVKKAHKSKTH", "assay": "Activity of human recombinant UGT1A8 expressed in insect cells assessed as enzyme mediated glucuronidation at 500 uM by LC-MS/MS method"}, "[3]": {"biological_target": "T3, UDP-glucuronosyltransferase 1A9 (Homo sapiens, UniProt O60656)", "T3 sequence (O60656 whole entry)": "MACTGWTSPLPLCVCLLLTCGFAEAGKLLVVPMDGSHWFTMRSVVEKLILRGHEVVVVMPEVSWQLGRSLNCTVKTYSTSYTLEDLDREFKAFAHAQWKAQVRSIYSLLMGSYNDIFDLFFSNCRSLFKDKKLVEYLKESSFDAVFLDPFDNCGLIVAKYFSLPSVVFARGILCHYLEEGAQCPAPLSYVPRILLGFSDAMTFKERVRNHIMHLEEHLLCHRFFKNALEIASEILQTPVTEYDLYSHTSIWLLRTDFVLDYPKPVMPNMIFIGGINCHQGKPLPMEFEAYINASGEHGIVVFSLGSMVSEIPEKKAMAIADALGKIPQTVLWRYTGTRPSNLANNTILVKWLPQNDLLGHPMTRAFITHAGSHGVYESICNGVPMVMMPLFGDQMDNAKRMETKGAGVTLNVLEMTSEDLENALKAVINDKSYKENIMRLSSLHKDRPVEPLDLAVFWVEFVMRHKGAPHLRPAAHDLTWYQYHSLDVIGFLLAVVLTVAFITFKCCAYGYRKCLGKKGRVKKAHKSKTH", "assay": "Activity of human recombinant UGT1A9 expressed in insect cells assessed as enzyme mediated glucuronidation by LC-MS/MS method"}, "[4]": {"biological_target": "T4, UDP-glucuronosyltransferase 2B17 (Homo sapiens, UniProt O75795)", "T4 sequence (O75795 whole entry)": "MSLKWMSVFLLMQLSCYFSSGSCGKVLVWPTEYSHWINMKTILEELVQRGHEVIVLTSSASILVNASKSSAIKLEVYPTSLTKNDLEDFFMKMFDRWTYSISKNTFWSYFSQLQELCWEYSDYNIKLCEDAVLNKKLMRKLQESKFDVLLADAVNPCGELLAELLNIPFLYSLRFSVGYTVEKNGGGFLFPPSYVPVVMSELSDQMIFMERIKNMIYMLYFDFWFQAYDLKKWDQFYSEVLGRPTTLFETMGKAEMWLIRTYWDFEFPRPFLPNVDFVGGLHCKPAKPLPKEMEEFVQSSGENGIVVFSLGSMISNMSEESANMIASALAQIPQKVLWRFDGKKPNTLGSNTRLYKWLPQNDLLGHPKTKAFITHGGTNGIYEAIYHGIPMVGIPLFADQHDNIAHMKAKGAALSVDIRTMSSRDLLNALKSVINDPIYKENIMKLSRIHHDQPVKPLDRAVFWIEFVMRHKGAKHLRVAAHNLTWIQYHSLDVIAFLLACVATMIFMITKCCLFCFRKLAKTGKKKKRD", "assay": "Activity of human recombinant UGT2B17 expressed in insect cells assessed as intrinsic clearance for enzyme mediated glucuronidation per mg protein by LC-MS/MS method"}, "[5]": {"assay": "Drug metabolism in human kidney microsomes assessed as drug glucuronidation in absence of BSA by LC-MS/MS method"}, "[6]": {"biological_target": "T4, UDP-glucuronosyltransferase 2B17", "assay": "Activity of human recombinant UGT2B17 expressed in insect cells assessed as enzyme mediated glucuronidation in presence of 5 to 35 uM androsterone by LC-MS/MS method"}, "[7]": {"biological_target": "T4, UDP-glucuronosyltransferase 2B17", "assay": "Activity of human recombinant UGT2B17 expressed in insect cells assessed as enzyme mediated glucuronidation at 500 uM by LC-MS/MS method"}, "[8]": {"biological_target": "T3, UDP-glucuronosyltransferase 1A9", "assay": "Activity of human recombinant UGT1A9 expressed in insect cells assessed as enzyme mediated glucuronidation at 12.5 uM by LC-MS/MS method"}, "[9]": {"assay": "Drug metabolism in human kidney microsomes assessed as drug glucuronidation in presence of 100 to 1000 uM propofol by LC-MS/MS method"}}, "data": [{"smiles": "CC1=NN(c2ccccc2)C(=O)C1", "note": "[EDARAVONE]", "values": [{"measurement": "Drug metabolism", "setting": "Liver microsome", "value": "metabolite_detected"}, {"measurement": "Drug metabolism", "setting": "[1]", "value": "metabolite_detected"}, {"measurement": "Drug metabolism", "setting": "[2]", "value": "metabolite_detected"}, {"measurement": "KmH", "setting": "[3]", "value": 6, "unit": "µM"}, {"measurement": "KmL", "setting": "[3]", "value": 419.4, "unit": "µM"}, {"measurement": "CL", "setting": "[4]", "value": 3.3, "unit": "µL/min/g"}, {"measurement": "Km", "setting": "[5]; read-out: KmH", "value": 7.4, "unit": "µM"}, {"measurement": "Km", "setting": "[5]; read-out: KmL", "value": 1360, "unit": "µM"}, {"measurement": "Drug metabolism", "setting": "[6]", "value": "metabolite_not_detected"}, {"measurement": "Drug metabolism", "setting": "[7]", "value": "metabolite_detected"}, {"measurement": "Drug metabolism", "setting": "[8]", "value": "metabolite_detected"}, {"measurement": "Drug metabolism", "setting": "[9]", "value": "metabolite_not_detected"}]}]}
